From patent US20210252009A1, “COMPOSITION COMPRISING FLT3 INHIBITOR AS EFFECTIVE INGREDIENT FOR INHIBITING DRUG RESISTANCE IN CHRONIC MYELOGENOUS LEUKEMIA” (INDUSTRY-ACADEMIC COOPERATION FOUNDATION, YONSEI UNIVERSITY, priority 2018, published 2021)

How the values were obtained:
[1] = test system: wild-type (WT) K562 cells; test: Drug tolerance test: surviving cells counted after 17 days of anticancer drug treatment; type: cell-based; conditions: 1 μM drug
[2] = test system: FLT3-transformed K562 cells; test: as above; type: cell-based; conditions: K562 FLT3, 1 μM drug
Procedure: Drug tolerance was tested using FLT3-transformed K562 cells (ATCC, CCL-243) mimicking the blast crisis of chronic myelogenous leukemia.
After administering three anticancer drugs against chronic myelogenous leukemia for 17 days to the FLT3-transformed K562 cells, the surviving cells were counted (Table 1).

[3] = test system: FLT3-transformed K562 cells; test: MTT assay, inhibitors against FLT3 subfactors co-treated with imatinib; type: cell-based; conditions: for Apoptotic effect and drug tolerance (MTT) when co-treated with imatinib: imatinib 1 μM plus inhibitor at three concentrations, 4 days, FIGS. 9a-9e; for Apoptotic effect and drug tolerance when JAK, STAT3, TAZ, TEAD and CD36 are inhibited: summary statement in the description, treatment conditions not given
Procedure: AZD1480 (Selleckem, Cat. No. S2162) was used as a JAK inhibitor, C188-9 (Selleckem, Cat. No. S8605) was used as a STAT3 inhibitor, verteporfin (Selleckem, Cat. No. S1786) was used as a TAZ inhibitor, flufenamic acid (Selleckem, Cat. No. S4268) was used as a TEAD inhibitor, and sulfo-N-succinimidyl oleate (Cayman, Cat. No. 11211) was used as a CD36 inhibitor. […] After treating with each inhibitor for 4 days, MTT assay was conducted in the same manner as in Test Example 5 and absorbance was measured at 540 nm using a multiplate reader (FIG. 9).

[4] = test system: FLT3-transformed K562 cells having resistance to imatinib; test: MTT assay, FLT3 inhibitors co-administered with imatinib; type: cell-based; conditions: 1 μM imatinib alone, 5 days
Procedure: The cells were cultured using DMEM (Hyclone) containing 10% FBS (Gibco). […] The concentration of the FLT3 inhibitor was as follows. […] 5 days later, after adding 100 μL of an MTT labeling reagent included in a cell proliferation kit (Roche) to each well for 2 hours and then treating with […] of a solubilization solution for 24 hours, absorbance was measured at a wavelength of 540 nm using a multiplate reader (FIGS. 8a-8c).

[5] = test system: FLT3-transformed K562 cells having resistance to three drugs (imatinib, dasatinib and nilotinib); conditions: single agent; FIGS. 4-7

Compound: Cc1nc(Nc2ncc(C(=O)Nc3c(C)cccc3Cl)s2)cc(N2CCN(CCO)CC2)n1 [dasatinib]
- Cell number ([1]; Day 0): 1 × 10^5
- Cell number ([1]; Day 5): 0.8075 × 10^5
- Cell number ([1]; Day 9): 0.35 × 10^5
- Cell number ([1]; Day 11): 0.47 × 10^5
- Cell number ([1]; Day 13): 0 × 10^5
- Cell number ([1]; Day 15): 0 × 10^5
- Cell number ([1]; Day 17): 0 × 10^5
- Cell number ([2]; Day 5): 1.57 × 10^5
- Cell number ([2]; Day 9): 2.87 × 10^5
- Cell number ([2]; Day 11): 2.23 × 10^5
- Cell number ([2]; Day 13): 2.26 × 10^5
- Cell number ([2]; Day 15): 1.76 × 10^5
- Cell number ([2]; Day 17): 9.33 × 10^5

Compound: Cc1cc(Nc2nc(N[C@@H](C)c3ncc(F)cn3)ncc2Cl)n[nH]1 [AZD1480]
- Apoptotic effect and drug tolerance (MTT) when co-treated with imatinib [3]: remarkably enhanced apoptotic effect and inhibited drug tolerance
- Apoptotic effect and drug tolerance when JAK, STAT3, TAZ, TEAD and CD36 are inhibited [3]: apoptotic effect is enhanced remarkably and drug tolerance is inhibited

Compound: Cc1ccc(NC(=O)c2ccc(CN3CCN(C)CC3)cc2)cc1Nc1nccc(-c2cccnc2)n1 [imatinib]
- Cell number ([1]; Day 0): 1 × 10^5
- Cell number ([1]; Day 5): 0.485 × 10^5
- Cell number ([1]; Day 9): 0.058 × 10^5
- Cell number ([1]; Day 11): 0.52 × 10^5
- Cell number ([1]; Day 13): 0.175 × 10^5
- Cell number ([1]; Day 15): 0 × 10^5
- Cell number ([1]; Day 17): 0 × 10^5
- Cell number ([2]; Day 0): 1 × 10^5
- Cell number ([2]; Day 5): 1.013 × 10^5
- Cell number ([2]; Day 9): 1.905 × 10^5
- Cell number ([2]; Day 11): 1.82 × 10^5
- Cell number ([2]; Day 15): 3.17 × 10^5
- Cell number ([2]; Day 17): 14.3 × 10^5
- Killing of FLT3-overexpressed K562 cells (MTT), imatinib only [4]: could not be killed
- Killing of resistant cells, treated only with the one agent [5]: hardly killed

Compound: CCCCCCCC/C=C\CCCCCCCC(=O)ON1C(=O)CC(S(=O)(=O)O)C1=O (centres unmarked) [sulfo-N-succinimidyl oleate]
- Apoptotic effect and drug tolerance (MTT) when co-treated with imatinib [3]: remarkably enhanced apoptotic effect and inhibited drug tolerance
- Apoptotic effect and drug tolerance when JAK, STAT3, TAZ, TEAD and CD36 are inhibited [3]: apoptotic effect is enhanced remarkably and drug tolerance is inhibited

Compound: O=C(O)c1ccccc1Nc1cccc(C(F)(F)F)c1 [flufenamic acid]
- Apoptotic effect and drug tolerance (MTT) when co-treated with imatinib [3]: remarkably enhanced apoptotic effect and inhibited drug tolerance
- Apoptotic effect and drug tolerance when JAK, STAT3, TAZ, TEAD and CD36 are inhibited [3]: apoptotic effect is enhanced remarkably and drug tolerance is inhibited

Compound: COc1ccc(S(=O)(=O)Nc2cc(-c3c(O)ccc4ccccc34)c(O)c3ccccc23)cc1 [C188-9]
- Apoptotic effect and drug tolerance (MTT) when co-treated with imatinib [3]: remarkably enhanced apoptotic effect and inhibited drug tolerance
- Apoptotic effect and drug tolerance when JAK, STAT3, TAZ, TEAD and CD36 are inhibited [3]: apoptotic effect is enhanced remarkably and drug tolerance is inhibited

Compound: Cc1cn(-c2cc(NC(=O)c3ccc(C)c(Nc4nccc(-c5cccnc5)n4)c3)cc(C(F)(F)F)c2)cn1 [nilotinib]
- Cell number ([1]; Day 0): 1 × 10^5
- Cell number ([1]; Day 5): 0.9675 × 10^5
- Cell number ([1]; Day 9): 0.23 × 10^5
- Cell number ([1]; Day 11): 0.76 × 10^5
- Cell number ([1]; Day 13): 0.09 × 10^5
- Cell number ([1]; Day 15): 0 × 10^5
- Cell number ([1]; Day 17): 0 × 10^5
- Cell number ([2]; Day 0): 1 × 10^5
- Cell number ([2]; Day 5): 2.0975 × 10^5
- Cell number ([2]; Day 9): 1.38 × 10^5
- Cell number ([2]; Day 11): 2.64 × 10^5
- Cell number ([2]; Day 13): 2.84 × 10^5
- Cell number ([2]; Day 15): 4.52 × 10^5
- Cell number ([2]; Day 17): 17.1 × 10^5
- Killing of resistant cells, treated only with the one agent [5]: hardly killed

Compound: verteporfin
- Apoptotic effect and drug tolerance (MTT) when co-treated with imatinib [3]: remarkably enhanced apoptotic effect and inhibited drug tolerance
- Apoptotic effect and drug tolerance when JAK, STAT3, TAZ, TEAD and CD36 are inhibited [3]: apoptotic effect is enhanced remarkably and drug tolerance is inhibited
